{"source": "patent US20040018482A1", "about": "“Loading and unloading of permeating protectants for cell, tissue, and organ cryopreservation by vitrification” (priority 1997, published 2004)", "key": {"[1]": {"system": "isolated rat heart", "test": "Cardiac function of isolated rat heart (working mode reperfusion) after DMSO loading and unloading", "experimental": "Preparation of the Cardiac Explant: The animal experiments were conducted in accordance with the “Principles of Laboratory Animal Care” formulated by the Institute of Laboratory Animal Resources and the “Guide for the Care and Use of Laboratory Animals” prepared by the Institute of Laboratory Animal Resources and published by the National Institute of Health (NIH Publication No. 86-23, 1985). Male Sprague-Dawley rats (300-350g) were anesthetized with sodium pentobarbital (65 mg/kg, ip) and anticoagulated with heparin (250u, iv). The heart was excised and immediately immersed in ice-cold Krebs-Henseleit buffer (KHB), which contained (in mM): 118 NaCl, 11 glucose, 25 NaHCO3, 4.7 KCl, 1.2 MgSO4, 1.2 KH2PO4, 0.5 Na-EDTA, and 2.5 CaCl2. The aorta was cannulated and the heart retrograde perfused at 70 mm Hg for 9 min. with 36.5° C. KHB equilibrated with 95% 02/[…]. The perfusion was continued for 2 min. at 60 mm Hg with CP-11E saturated with 100% 02. The composition of CP-11E (in mM) was: 125 NaCl, 7 glucose, 1.2 KH2PO4, 10 mannitol, 15 MgSO4, 14 KCl, 10 Hepes, 0.02 EDTA, 0.28 CaCl2 , pH 7.5.\nAfter CP-11E flush, the arrested heart was transferred to a perfusion apparatus (FIG. 1). Both CP-11EB and CP-11E+DMSO+mannitol were bubbled constantly with 100% 02. Perfusate was delivered via an aortic cannula by a peristaltic pump at a flow rate of 1 ml/min. Two experiments were performed at room temperature.\nExperiment 0: The heart was gradually loaded with 30 wt % DMSO and immediately unloaded. No co-solutes were used. […]\nAssessment of cardiac function: Cardiac function was assessed by working mode reperfusion with KHB at 11 mm Hg preload and 70 mm Hg after load. Heart rate (HR, beats/min), aortic and coronary flow (AF and CF, ml/min.), cardiac output (CO=AF+CF, ml/min.), systolic and diastolic aortic pressure (mm Hg) were recorded. Coronary vascular resistance and work were calculated according to Neely et al., 1967 (Neely et al. “Effect of Pressure Development on Oxygen Consumption by the Isolated Rat Heart ”. Am. J. Physiology, 212:804-12, 1967)."}, "[2]": {"system": "Drosophila melanogaster embryos", "settings": "co-solute in ethylene glycol vitrification solution; cited from earlier work"}, "[3]": {"system": "erythrocytes", "test": "Hemolysis of rat erythrocytes after step loading and unloading with ethylene glycol vitrification solution", "assay_type": "cell-based", "settings": "added to 60 wt % EG+0.9 wt % NaCl vitrification solution; 60 min equilibration and two unloading steps; room temperature, pH 7.0; FIG. 1", "experimental": "Blood was sampled from external jugular vein of rats after heart extrusion described in Example 1.\nStep 1: 100 μl of blood were mixed with 100 μl of 30 wt % EG+0.9 wt % NaCl. Equilibration time 10 min.\nStep 2: 1000 μl of vitrification solution vitrification solution containing mixture of 60 wt % EG+0.9 wt % NaCl with different amounts of glutamic acid monosodium Salt (GA) per gram of Vitrification solution were slowly (during 3-5 min.) added to the mixture obtained after Step 1.\nAfter that the blood cells were equilibrated in Vitrification solution during 60 min. before unloading.\nStep 1: After 60 min. equilibration in vitrification solution erythrocytes were centrifuged down (5 min. at 2000 g), 0.5 ml of supernatant was removed from each sample, and 0.5 ml of 3 wt % GA+0.9 wt % NaCl were added to each sample. […]\nConcentration of free hemoglobin in supernatants collected from the samples after equilibration in Vitrification solution, first and second step of unloading was used to characterize the erythrocyte damage (hemolysis). The concentration of free hemoglobin was measured using 390 Turner spectrophotometer (at 550 nm wavelength) after adding 0.5 ml of supernatant to 3 ml of water. The hemolysis was measured as a ratio of hemoglobin concentration in the supernatants to the hemoglobin concentration in the mixture of 41.7 μl of blood with 3.5 ml water that was taken as 100% hemolysis. […]"}, "[4]": {"settings": "Experiment 0: loaded to 30 wt % DMSO in 30 min, unloaded 60 min, no co-solutes (mannitol not present)"}}, "data": [{"smiles": "OC[C@@H](O)[C@@H](O)[C@H](O)[C@H](O)CO", "note": "[mannitol]", "values": [{"measurement": "effect of presence of mannitol on damage to the heart caused by high concentration of DMSO and changes in osmotic pressure", "setting": "[1]; mannitol present during loading, perfusion and unloading (Experiments 1 and 2)", "result": "prevented damage to the heart"}]}, {"smiles": "N[C@@H](CCC(=O)O)C(=O)O", "note": "[glutamic acid]", "values": [{"measurement": "effect on ethylene glycol permeation into embryos", "setting": "[2]", "result": "significantly diminished ethylene glycol permeation"}]}, {"smiles": "NCC(=O)O", "note": "[glycine]", "values": [{"measurement": "effect on ethylene glycol permeation into embryos", "setting": "[2]", "result": "significantly diminished ethylene glycol permeation"}]}, {"smiles": "N[C@@H](CCC(=O)O)C(=O)[O-].[Na+]", "note": "[GA, glutamic acid monosodium Salt]", "values": [{"measurement": "effect of co-solute on erythrocyte damage (hemolysis)", "setting": "[3]", "result": "protects erythrocytes from damage"}]}, {"smiles": "C[S+](C)[O-]", "note": "[DMSO, dimethylsulfoxide]", "values": [{"measurement": "recovery in function after unloading", "setting": "[1]; [4]", "result": "no recovery in function"}, {"measurement": "state of the heart (contracture)", "setting": "[1]; [4]", "result": "developed contracture"}]}, {"smiles": "OC[C@@H](O)[C@@H](O)[C@H](O)[C@@H](O)CO", "note": "[sorbitol]", "values": [{"measurement": "effect on ethylene glycol permeation into embryos", "setting": "[2]", "result": "significantly diminished ethylene glycol permeation"}]}]}
